Results reported in patent US10206394B2, “Herbicidal compounds” (Syngenta Participations AG, priority 2014, dated 2019).
Where two headings read alike, the source gives them in different places.

How the values were obtained:
Test in all cases: Glasshouse assay for herbicidal activity (pre- and post-emergence), percentage phytotoxicity
Type in all cases: in vivo
[1] = test system: Echinochloa crus-galli (ECHCG); settings: Echinochloa crus-galli
Description: (§1) Test—Glasshouse Assay for Herbicidal Activity
(§2) Seeds of a variety of monocotyledonous and dicotyledonous test plants are sown in standard soil in pots. The plants are cultivated for one day (for pre-emergence (PRE)) or for about 12 days (for post-emergence (POST)) under controlled conditions in a glasshouse (warm climate species at 24/18° C., cool climate species at 20/16° C., both at day/night; 16 hours light; 65% humidity).
(§3) The test plants are then grown on, in a glasshouse (greenhouse) under controlled conditions (warm climate species at 24/18° C., cool climate species at 20/16° C., both at day/night; 16 hours light; 65% humidity) and are watered twice daily. 15 days after application of the test herbicide (15 DAA) (for post-emergence), and 20 days after application of the test herbicide (20 DAA) (for pre-emergence), the test plants are evaluated visually, and an assessed percentage phytotoxicity score is given for each herbicidal application on each plant species (with 100%=total damage to plant; 0%=no damage to plant).
(§4) The plant species tested are as follows: Alopecurus myosuroides (ALOMY), Avena fatua (AVEFA), Lolium perenne (LOLPE), Echinochloa crus-galli (ECHCG).

Avena fatua (AVEFA) = settings: Avena fatua
Description: as §1, §2, §3, §4

[2] = test system: Alopecurus myosuroides (ALOMY); settings: Alopecurus myosuroides
Description: as §1, §2, §3, §4

Lolium perenne (LOLPE) = settings: Lolium perenne
Description: as §1, §2, §3, §4

[3] = post-emergence, 360 h, POST-emergence, rate 250 g/ha, visual score 15 DAA (100%=total damage, 0%=no damage), read-out: Post-emergence herbicidal activity (percentage phytotoxicity) ECHCG POST
[4] = pre-emergence, 480 h, PRE-emergence, rate 250 g/ha, visual score 20 DAA (100%=total damage, 0%=no damage), read-out: Pre-emergence herbicidal activity (percentage phytotoxicity) ECHCG PRE
[5] = post-emergence, 360 h, POST-emergence, rate 250 g/ha, visual score 15 DAA (100%=total damage, 0%=no damage), read-out: Post-emergence herbicidal activity (percentage phytotoxicity) AVEFA POST
[6] = pre-emergence, 480 h, PRE-emergence, rate 250 g/ha, visual score 20 DAA (100%=total damage, 0%=no damage), read-out: Pre-emergence herbicidal activity (percentage phytotoxicity) AVEFA PRE
[7] = post-emergence, 360 h, POST-emergence, rate 250 g/ha, visual score 15 DAA (100%=total damage, 0%=no damage), read-out: Post-emergence herbicidal activity (percentage phytotoxicity) ALOMY POST
[8] = pre-emergence, 480 h, PRE-emergence, rate 250 g/ha, visual score 20 DAA (100%=total damage, 0%=no damage), read-out: Pre-emergence herbicidal activity (percentage phytotoxicity) ALOMY PRE
[9] = post-emergence, 360 h, POST-emergence, rate 250 g/ha, visual score 15 DAA (100%=total damage, 0%=no damage), read-out: Post-emergence herbicidal activity (percentage phytotoxicity) LOLPE POST
[10] = pre-emergence, 480 h, PRE-emergence, rate 250 g/ha, visual score 20 DAA (100%=total damage, 0%=no damage), read-out: Pre-emergence herbicidal activity (percentage phytotoxicity) LOLPE PRE
[11] = post-emergence, 360 h, Rate 250 g/ha, post-emergence, visual assessment 15 DAA, 100%=total damage, 0%=no damage, read-out: Post-emergence herbicidal activity (percentage phytotoxicity) ECHCG POST
[12] = pre-emergence, 480 h, Rate 250 g/ha, pre-emergence, visual assessment 20 DAA, 100%=total damage, 0%=no damage, read-out: Pre-emergence herbicidal activity (percentage phytotoxicity) ECHCG PRE
[13] = post-emergence, 360 h, Rate 250 g/ha, post-emergence, visual assessment 15 DAA, 100%=total damage, 0%=no damage, read-out: Post-emergence herbicidal activity (percentage phytotoxicity) AVEFA POST
[14] = pre-emergence, 480 h, Rate 250 g/ha, pre-emergence, visual assessment 20 DAA, 100%=total damage, 0%=no damage, read-out: Pre-emergence herbicidal activity (percentage phytotoxicity) AVEFA PRE
[15] = post-emergence, 360 h, Rate 250 g/ha, post-emergence, visual assessment 15 DAA, 100%=total damage, 0%=no damage, read-out: Post-emergence herbicidal activity (percentage phytotoxicity) ALOMY POST
[16] = pre-emergence, 480 h, Rate 250 g/ha, pre-emergence, visual assessment 20 DAA, 100%=total damage, 0%=no damage, read-out: Pre-emergence herbicidal activity (percentage phytotoxicity) ALOMY PRE
[17] = post-emergence, 360 h, Rate 250 g/ha, post-emergence, visual assessment 15 DAA, 100%=total damage, 0%=no damage, read-out: Post-emergence herbicidal activity (percentage phytotoxicity) LOLPE POST
[18] = pre-emergence, 480 h, Rate 250 g/ha, pre-emergence, visual assessment 20 DAA, 100%=total damage, 0%=no damage, read-out: Pre-emergence herbicidal activity (percentage phytotoxicity) LOLPE PRE
[19] = post-emergence, 360 h, 250 g/ha, post-emergence, 15 DAA, visual assessment (100%=total damage, 0%=no damage), read-out: Post-emergence herbicidal activity (percentage phytotoxicity) ECHCG POST
[20] = pre-emergence, 480 h, 250 g/ha, pre-emergence, 20 DAA, visual assessment (100%=total damage, 0%=no damage), read-out: Pre-emergence herbicidal activity (percentage phytotoxicity) ECHCG PRE
[21] = post-emergence, 360 h, 250 g/ha, post-emergence, 15 DAA, visual assessment (100%=total damage, 0%=no damage), read-out: Post-emergence herbicidal activity (percentage phytotoxicity) AVEFA POST
[22] = pre-emergence, 480 h, 250 g/ha, pre-emergence, 20 DAA, visual assessment (100%=total damage, 0%=no damage), read-out: Pre-emergence herbicidal activity (percentage phytotoxicity) AVEFA PRE
[23] = post-emergence, 360 h, 250 g/ha, post-emergence, 15 DAA, visual assessment (100%=total damage, 0%=no damage), read-out: Post-emergence herbicidal activity (percentage phytotoxicity) ALOMY POST
[24] = pre-emergence, 480 h, 250 g/ha, pre-emergence, 20 DAA, visual assessment (100%=total damage, 0%=no damage), read-out: Pre-emergence herbicidal activity (percentage phytotoxicity) ALOMY PRE
[25] = post-emergence, 360 h, 250 g/ha, post-emergence, 15 DAA, visual assessment (100%=total damage, 0%=no damage), read-out: Post-emergence herbicidal activity (percentage phytotoxicity) LOLPE POST
[26] = pre-emergence, 480 h, 250 g/ha, pre-emergence, 20 DAA, visual assessment (100%=total damage, 0%=no damage), read-out: Pre-emergence herbicidal activity (percentage phytotoxicity) LOLPE PRE

SMILES: C=CC(C)NC(=O)CC1CC(=O)C(c2c(C)cc(-c3ncc(F)cn3)cc2C)C1=O (centres unmarked) [Compound B328]
- pest or weed control at 250 g/ha [1, 3]: 100%
- pest or weed control at 250 g/ha [1, 4]: 100%
- pest or weed control at 250 g/ha (Avena fatua (AVEFA); [5]): 100%
- pest or weed control at 250 g/ha (Avena fatua (AVEFA); [6]): 100%
- pest or weed control at 250 g/ha [2, 7]: 100%
- pest or weed control at 250 g/ha [2, 8]: 100%
- pest or weed control at 250 g/ha (Lolium perenne (LOLPE); [9]): 100%
- pest or weed control at 250 g/ha (Lolium perenne (LOLPE); [10]): 100%

SMILES: COCCCN(C(=O)CC1CC(OC(=O)C(C)(C)C)=C(c2c(C)cc(C)cc2C)C1=O)C(=O)C(C)(C)C (centres unmarked) [Compound P9]
- pest or weed control at 250 g/ha [1, 11]: 80%
- pest or weed control at 250 g/ha [1, 12]: 90%
- pest or weed control at 250 g/ha (Avena fatua (AVEFA); [13]): 80%
- pest or weed control at 250 g/ha (Avena fatua (AVEFA); [14]): 60%
- pest or weed control at 250 g/ha [2, 15]: 80%
- pest or weed control at 250 g/ha [2, 16]: 90%
- pest or weed control at 250 g/ha (Lolium perenne (LOLPE); [17]): 80%
- pest or weed control at 250 g/ha (Lolium perenne (LOLPE); [18]): 90%

SMILES: C/C=C/c1cc(C)c(C2C(=O)CC(CC(=O)N3CCOCC3)C2=O)c(C)c1 (centres unmarked) [Compound B172]
- pest or weed control at 250 g/ha [1, 3]: 100%
- pest or weed control at 250 g/ha [1, 4]: 100%
- pest or weed control at 250 g/ha (Avena fatua (AVEFA); [5]): 90%
- pest or weed control at 250 g/ha (Avena fatua (AVEFA); [6]): 80%
- pest or weed control at 250 g/ha [2, 7]: 90%
- pest or weed control at 250 g/ha [2, 8]: 80%
- pest or weed control at 250 g/ha (Lolium perenne (LOLPE); [9]): 90%
- pest or weed control at 250 g/ha (Lolium perenne (LOLPE); [10]): 100%

SMILES: Cc1cc(C)c(C2C(=O)CC(CC(=O)Nc3ccc(C#N)cc3)C2=O)c(C)c1 (centres unmarked) [Compound B1]
- pest or weed control at 250 g/ha [1, 19]: 60%
- pest or weed control at 250 g/ha [1, 20]: 70%
- pest or weed control at 250 g/ha (Avena fatua (AVEFA); [21]): 0%
- pest or weed control at 250 g/ha (Avena fatua (AVEFA); [22]): 0%
- pest or weed control at 250 g/ha [2, 23]: 0%
- pest or weed control at 250 g/ha [2, 24]: 20%
- pest or weed control at 250 g/ha (Lolium perenne (LOLPE); [25]): 20%
- pest or weed control at 250 g/ha (Lolium perenne (LOLPE); [26]): 20%

SMILES: COCC(C)NC(=O)CC1CC(=O)C(c2c(C)cc(-c3ncc(F)cc3F)cc2C)C1=O (centres unmarked) [Compound B335]
- pest or weed control at 250 g/ha [1, 11]: 100%
- pest or weed control at 250 g/ha [1, 12]: 90%
- pest or weed control at 250 g/ha (Avena fatua (AVEFA); [13]): 100%
- pest or weed control at 250 g/ha (Avena fatua (AVEFA); [14]): 100%
- pest or weed control at 250 g/ha [2, 15]: 100%
- pest or weed control at 250 g/ha [2, 16]: 100%
- pest or weed control at 250 g/ha (Lolium perenne (LOLPE); [17]): 100%
- pest or weed control at 250 g/ha (Lolium perenne (LOLPE); [18]): 100%

SMILES: CCc1cc(C)cc(C)c1C1C(=O)CC(CC(=O)N(C)C(C)(C)C)C1=O (centres unmarked) [Compound B259]
- pest or weed control at 250 g/ha [1, 3]: 100%
- pest or weed control at 250 g/ha [1, 4]: 100%
- pest or weed control at 250 g/ha (Avena fatua (AVEFA); [5]): 100%
- pest or weed control at 250 g/ha (Avena fatua (AVEFA); [6]): 90%
- pest or weed control at 250 g/ha [2, 7]: 100%
- pest or weed control at 250 g/ha [2, 8]: 100%
- pest or weed control at 250 g/ha (Lolium perenne (LOLPE); [9]): 100%
- pest or weed control at 250 g/ha (Lolium perenne (LOLPE); [10]): 100%

SMILES: Cc1cc(-c2ncc(Cl)cc2F)cc(C)c1C1C(=O)CC(CC(=O)NC/C=C/Cl)C1=O (centres unmarked) [Compound B162]
- pest or weed control at 250 g/ha [1, 19]: 100%
- pest or weed control at 250 g/ha [1, 20]: 100%
- pest or weed control at 250 g/ha (Avena fatua (AVEFA); [21]): 100%
- pest or weed control at 250 g/ha (Avena fatua (AVEFA); [22]): 90%
- pest or weed control at 250 g/ha [2, 23]: 100%
- pest or weed control at 250 g/ha [2, 24]: 100%
- pest or weed control at 250 g/ha (Lolium perenne (LOLPE); [25]): 100%
- pest or weed control at 250 g/ha (Lolium perenne (LOLPE); [26]): 100%
